The term inhibition denotes the drop in the measured response relative to a control, in per cent.

The target of the test is Recombinant KAT6A/MOZ (488-778) protein (Homo sapiens (Human), UniProt Q92794). Description: KAT6A AlphaLISA Inhibition Screening Assay. Format: biochemical. The note with it: for inhibition at 1 µM: read-out: Average Kat6A % inhibition @ 1 μM; for inhibition at 1 µM / Average Kat6A % inhibition @ 1 μM: 1 μM test compound; for inhibition at 10 µM: read-out: Average Kat6A % inhibition @ 10 μM; for inhibition at 10 µM / Average Kat6A % inhibition @ 10 μM: 10 μM test compound. In a few lines: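 AlphaLISA read-out with anti-acetyl-lysine acceptor and streptavidin donor beads, % inhibition relative to vehicle. Reaction: biotinylated histone H3 1-21 (200 nM) and acetyl-CoA (400 nM) with KAT6A 488-778 (25 nM), 120 min at room temperature, pH 8.0, 330 nM TSA, after 60 or 10 min enzyme–compound pre-incubation; 10-point 3-fold series from 10 μM.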
In general terms: Alpha assays give light when donor and acceptor beads are brought close together.

Recombinant KAT6A/MOZ (488-778) protein, sequence (Q92794 488-778): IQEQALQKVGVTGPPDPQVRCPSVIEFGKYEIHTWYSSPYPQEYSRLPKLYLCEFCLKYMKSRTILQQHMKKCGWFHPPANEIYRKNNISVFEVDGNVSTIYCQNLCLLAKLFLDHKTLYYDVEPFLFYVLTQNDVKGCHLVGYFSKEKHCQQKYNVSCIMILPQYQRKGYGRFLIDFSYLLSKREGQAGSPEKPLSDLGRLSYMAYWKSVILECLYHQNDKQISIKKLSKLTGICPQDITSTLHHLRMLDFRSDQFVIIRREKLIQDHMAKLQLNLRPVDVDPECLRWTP

As for `C#CC(=O)NCc1cnn(Cc2cc(OC)c3c(NS(=O)(=O)c4cc(CC)ccc4OCCO)noc3c2)c1` [Syn. Ex. 65, N-((1-((3-((5-ethyl-2-(2-hydroxyethoxy)phenyl)sulfonamido)-4-methoxybenzo[d]isoxazol-6-yl)methyl)-1H-pyrazol-4-yl)methyl)propiolamide], the inhibition at 1 µM is 100% and the inhibition at 10 µM was determined as 100%.
With `CCc1ccc(OCCO)c(S(=O)(=O)Nc2noc3cc(Cn4cc(CNC(=O)OC)cn4)cc(OC)c23)c1` [Syn. Ex. 64, methyl ((1-((3-((5-ethyl-2-(2-hydroxyethoxy)phenyl)sulfonamido)-4-methoxybenzo[d]isoxazol-6-yl)methyl)-1H-pyrazol-4-yl)methyl)carbamate], the inhibition at 1 µM was found to be 94% and the inhibition at 10 µM was determined as 100%.
The corresponding values for `CCc1ccc(OC)c(S(=O)(=O)Nc2noc3cc(Cn4cc(CNC(=O)OC)cn4)c4c(c23)OCCC4)c1` [Syn. Ex. 97, methyl ((1-((9-((5-ethyl-2-methoxyphenyl)sulfonamido)-3,4-dihydro-2H-chromeno[8,7-d]isoxazol-5-yl)methyl)-1H-pyrazol-4-yl)methyl)carbamate] are 100% and 100%.
The corresponding values for `CCc1ccc(OC)c(S(=O)(=O)Nc2noc3cc(Oc4cc(CNC(=O)OC)ccn4)cc(OC)c23)c1` [Syn. Ex. 110, methyl ((2-((3-((5-ethyl-2-methoxyphenyl)sulfonamido)-4-methoxybenzo[d]isoxazol-6-yl)oxy)pyridin-4-yl)methyl)carbamate] are 9% and 58%.
Regarding `COC(=O)NCc1cnn(Cc2cc(OC)c3c(NS(=O)(=O)c4cccc5c(C)ccnc45)noc3c2)c1` [Syn. Ex. 131, methyl ((1-((4-methoxy-3-((4-methylquinoline)-8-sulfonamido)benzo[d]isoxazol-6-yl)methyl)-1H-pyrazol-4-yl)methyl)carbamate], the “Average Kat6A % inhibition @ 1 μM” value was determined as 99% and the “Average Kat6A % inhibition @ 10 μM” value is 100%.
On to `C=C(F)C(=O)NCc1cnn(Cc2cc(OC)c3c(NS(=O)(=O)c4cc(CC)ccc4OCc4ccnc(OC)c4)noc3c2)c1` [Syn. Ex. 94, N-((1-((3-((5-ethyl-2-((2-methoxypyridin-4-yl)methoxy)phenyl)sulfonamido)-4-methoxybenzo[d]isoxazol-6-yl)methyl)-1H-pyrazol-4-yl)methyl)-2-fluoroacrylamide], for which the inhibition at 1 µM turned out to be 100% and the inhibition at 10 µM is 100%.
Regarding `COc1cc(C)c(Cl)cc1S(=O)(=O)Nc1noc2cc(Cn3cc(CNS(C)(=O)=O)cn3)cc(OC)c12` [Syn. Ex. 22, 5-chloro-2-methoxy-N-(4-methoxy-6-((4-(methylsulfonamidomethyl)-1H-pyrazol-1-yl)methyl)benzo[d]isoxazol-3-yl)-4-methylbenzenesulfonamide], the inhibition at 1 µM was found to be 100% and the inhibition at 10 µM worked out at 100%.
Consider `CCc1ccc(OCC(=O)N2CCOCC2)c(S(=O)(=O)Nc2noc3cc(Cn4cc(CNC(=O)OC)cn4)cc(OC)c23)c1` [Syn. Ex. 66, methyl ((1-((3-((5-ethyl-2-(2-morpholino-2-oxoethoxy)phenyl)sulfonamido)-4-methoxybenzo[d]isoxazol-6-yl)methyl)-1H-pyrazol-4-yl)methyl)carbamate], for which the inhibition at 1 µM came to 93% and the inhibition at 10 µM worked out at 100%.
On the same counts, the results for `C=C(F)C(=O)NCc1cnn(Cc2cc(OC)c3c(NS(=O)(=O)c4cc(CC)ccc4OCc4nn[nH]n4)noc3c2)c1` [Syn. Ex. 72, N-((1-((3-((2-((2H-tetrazol-5-yl)methoxy)-5-ethylphenyl)sulfonamido)-4-methoxybenzo[d]isoxazol-6-yl)methyl)-1H-pyrazol-4-yl)methyl)-2-fluoroacrylamide] are 100% and 100%.
As to `CCc1ccc(OC)c(S(=O)(=O)Nc2noc3cc(Cn4cc(CNC(=O)OC)cn4)c(OC)cc23)c1` [Syn. Ex. 137, methyl ((1-((3-((5-ethyl-2-methoxyphenyl)sulfonamido)-5-methoxybenzo[d]isoxazol-6-yl)methyl)-1H-pyrazol-4-yl)methyl)carbamate], the inhibition at 1 µM stood at 98% and the inhibition at 10 µM is 89%.
On to `C=C(F)C(=O)NCc1csc(Oc2cc(OC)c3c(NS(=O)(=O)c4cc(CC)ccc4OC)noc3c2)n1` [Syn. Ex. 105, N-((2-((3-((5-ethyl-2-methoxyphenyl)sulfonamido)-4-methoxybenzo[d]isoxazol-6-yl)oxy)thiazol-4-yl)methyl)-2-fluoroacrylamide], for which the inhibition at 1 µM amounted to 68% and the inhibition at 10 µM was found to be 99%.
The corresponding values for `CC#CC(=O)N1Cc2cnn(Cc3cc(OC)c4c(NS(=O)(=O)c5cc(CC)ccc5OC)noc4c3)c2C1` [Syn. Ex. 11, N-(6-((5-(but-2-ynoyl)-5,6-dihydropyrrolo[3,4-c]pyrazol-1(4H)-yl)methyl)-4-methoxybenzo[d]isoxazol-3-yl)-5-ethyl-2-methoxybenzenesulfonamide] are 100% and 100%.
Consider `C=C(F)C(=O)NCc1cnn(Cc2cc(OC)c3c(NS(=O)(=O)c4cc(CC)ccc4OCc4ncc[nH]4)noc3c2)c1` [Syn. Ex. 119, N-((1-((3-((2-((1H-imidazol-2-yl)methoxy)-5-ethylphenyl)sulfonamido)-4-methoxybenzo[d]isoxazol-6-yl)methyl)-1H-pyrazol-4-yl)methyl)-2-fluoroacrylamide], for which the inhibition at 1 µM was determined as 100% and the inhibition at 10 µM came out at 100%.
Take `CCc1ccc(S(=O)(=O)Nc2noc3cc(Cn4cc(CNC(=O)OC)cn4)c4c(c23)OCCC4)c(OC)c1` [Syn. Ex. 140, methyl ((1-((9-((4-ethyl-2-methoxyphenyl)sulfonamido)-3,4-dihydro-2H-chromeno[8,7-d]isoxazol-5-yl)methyl)-1H-pyrazol-4-yl)methyl)carbamate]: the inhibition at 1 µM was 106% and the inhibition at 10 µM is 104%.
On the same counts, the results for `COc1cc(Cn2cc(CNS(C)(=O)=O)cn2)cc2onc(NS(=O)(=O)c3ccccc3OCc3ccccc3)c12` [Syn. Ex. 37, 2-(benzyloxy)-N-(4-methoxy-6-((4-(methylsulfonamidomethyl)-1H-pyrazol-1-yl)methyl)benzo[d]isoxazol-3-yl)benzenesulfonamide] are 100% and 100%.
As for `COC(=O)NCc1cnn(Cc2cc3onc(NS(=O)(=O)c4cc(F)ccc4OC)c3c3c2CCCO3)c1` [Syn. Ex. 124, methyl ((1-((9-((5-fluoro-2-methoxyphenyl)sulfonamido)-3,4-dihydro-2H-chromeno[8,7-d]isoxazol-5-yl)methyl)-1H-pyrazol-4-yl)methyl)carbamate], the inhibition at 1 µM came to 100% and the inhibition at 10 µM was 100%.
In the case of `C=C(Cl)C(=O)NCc1cnn(Cc2cc(OC)c3c(NS(=O)(=O)c4cc(CC)ccc4OC)noc3c2)c1` [Syn. Ex. 35, 2-chloro-N-((1-((3-((5-ethyl-2-methoxyphenyl)sulfonamido)-4-methoxybenzo[d]isoxazol-6-yl)methyl)-1H-pyrazol-4-yl)methyl)acrylamide], the inhibition at 1 µM came to 100% and the inhibition at 10 µM came out at 100%.
Regarding `CCOC(=O)NCc1cnn(Cc2cc(OC)c3c(NS(=O)(=O)c4cc(CC)ccc4OC)noc3c2)c1` [Syn. Ex. 16, ethyl ((1-((3-((5-ethyl-2-methoxyphenyl)sulfonamido)-4-methoxybenzo[d]isoxazol-6-yl)methyl)-1H-pyrazol-4-yl)methyl)carbamate], the inhibition at 1 µM worked out at 98% and the inhibition at 10 µM was determined as 98%.
As for `C=C(F)C(=O)NCc1ccnc(Oc2cc(OC)c3c(NS(=O)(=O)c4cc(CC)ccc4OC)noc3c2)c1` [Syn. Ex. 111, N-((2-((3-((5-ethyl-2-methoxyphenyl)sulfonamido)-4-methoxybenzo[d]isoxazol-6-yl)oxy)pyridin-4-yl)methyl)-2-fluoroacrylamide], the inhibition at 1 µM amounted to 0% and the inhibition at 10 µM was 54%.
As to `CC#CC(=O)NCc1cnn(Cc2cc(OC)c3c(NS(=O)(=O)c4cc5c(cc4OC)CCC5)noc3c2)c1` [Syn. Ex. 29, N-((1-((4-methoxy-3-((6-methoxy-2,3-dihydro-1H-indene)-5-sulfonamido)benzo[d]isoxazol-6-yl)methyl)-1H-pyrazol-4-yl)methyl) but-2-ynamide], the “Average Kat6A % inhibition @ 1 μM” value worked out at 100% and the “Average Kat6A % inhibition @ 10 μM” value is 100%.
With `COc1cc2c(NS(=O)(=O)c3cc(C)ccc3OC)noc2cc1Cn1cc(CN)cn1` [Syn. Ex. 150, N-(6-((4-(aminomethyl)-1H-pyrazol-1-yl)methyl)-5-methoxybenzo[d]isoxazol-3-yl)-2-methoxy-5-methylbenzenesulfonamide], the inhibition at 1 µM was determined as 101% and the inhibition at 10 µM was determined as 103%.
In the case of `CC#CC(=O)NCc1cnn(Cc2cc(OC)c3c(NS(=O)(=O)c4cc(C)c(C)cc4OC)noc3c2)c1` [Syn. Ex. 27, N-((1-((4-methoxy-3-((2-methoxy-4,5-dimethylphenyl)sulfonamido)benzo[d]isoxazol-6-yl)methyl)-1H-pyrazol-4-yl)methyl)but-2-ynamide], the inhibition at 1 µM is 100% and the inhibition at 10 µM amounted to 100%.
For the compound `CCOc1cc2c(NS(=O)(=O)c3cc(CC)ccc3OC)noc2cc1Cn1cc(CNC(=O)OC)cn1` [Syn. Ex. 142, methyl ((1-((5-ethoxy-3-((5-ethyl-2-methoxyphenyl)sulfonamido)benzo[d]isoxazol-6-yl)methyl)-1H-pyrazol-4-yl)methyl)carbamate], the inhibition at 1 µM came out at 110% and the inhibition at 10 µM was 99%.

These data come from patent publication US20250122182A1 (Isosterix, Inc., priority 2023, published 2025).
